Assay results as given in patent US20190252037A1 (priority 2016, published 2019).

Test system: FluB polymerase K631A+R634A
Type: binding, human influenza B/Memphis/13/03

Substance: Pol II CTD peptide, four heptad repeats Tyr-Ser-Pro-Thr-SerP-Pro-Ser (28 amino acids), FAM-labelled at the N-terminal end for binding assays (Covalab) [28-mer SeP5 peptide]
- decrease in the binding affinity compared to wild type: 2.5 fold
